Experimental findings from PubChem BioAssay AID2060601 (Molecular Pharmacology Branch, DTP, NCI, 2025) are described below.

In the experiment the test system is 874868-142-R-J2-PDC complex spheroids, growth % test/control. In words: Anticancer human tumor 874868-142-R-J2-PDC patient-derived head and neck squamous carcinoma cell line growth inhibition [CLK]. To be noted: for viability, T/C: stronger effect = lower value. From the text: A high-throughput screen of multi-cell type tumor spheroids was designed to identify active combinations of […] and targeted small molecules. Complex spheroids include a stromal component modeled by human endothelial cells (HUVEC) and fibroblasts modeled by human mesenchymal stem cells (MSCs). The concentration ranges selected for each drug and investigational agent were based upon clinically achievable concentrations if the clinical Cmax of the agent was known.
Compounds. The drugs and investigational agents: cirtuvivint (SM08502; NSC835563), CC-671 (NSC850746), vemurafenib (NSC761431), tapotoclax (NSC804041), sotorasib (NSC818433), adagrasib (NSC831453), MRTX-1133 (NSC836407), BAY2416964 (NSC825713), copanlisib (NSC816437), inavolisib (NSC800729), abemaciclib (NSC768073), osimertinib (NSC779217), entinostat (NSC756642), eltanexor (KPT-8602, NSC794443), venetoclax (NSC766270), ceralasertib (NSC777638), bortezomib (NSC756655), olaparib (NSC753686), talazoparib (NSC767125), alisertib (NSC759677), peposertib (NSC802822), gemcitabine (NSC613327), 5-fluorouracil (NSC19893), SN-38 (NSC673596), oxaliplatin (NSC266046), paclitaxel (NSC125973), and doxorubicin (NSC123127), were obtained from the National Cancer Institute (NCI) Developmental Therapeutics Program Chemical Repository. The FDA-approved anticancer drug set is available from the Developmental Therapeutics Program at https://dtp.cancer.gov/organization/dscb/obtaining/available plates.htm. […] The stock solutions were prepared in dimethyl sulfoxide (DMSO, Sigma-Aldrich, St. Louis, MO, cat. D2650), except for the platinum complexes which were prepared in saline (Quality Biological, Gaithersburg, MD, cat. 114-055-101), at 800-fold the tested concentration and stored at -70 degrees C prior to their use. All drugs and investigational agents were tested over a range starting from a high concentration at or near the clinical Cmax and decreasing in half-log increments. If the clinical Cmax for an agent had not been determined, the highest concentration tested was 10 microM.
Cell Culture. All cells were maintained in an incubator at 37 degrees C and 5% CO2 with 95% humidity. The PDC lines were cultured according to standard operating procedures established by the NCI PDMR. Briefly, all PDCs were thawed and cultured in Matrigel-coated flasks prepared with a working solution of 1X Ham's F-12 nutrient mix, without supplementation (Invitrogen, Waltham, MA, cat. 11765054), 100 U/mL penicillin-streptomycin (Invitrogen, cat. 15140122), and 2.5% Matrigel (Corning Inc., Corning, NY, cat. 354248) for the first three passages. The 947758-054-R-J2-PDC line was cultured in 6B/Colon 1A media, which includes advanced DMEM/F-12 (Thermo Fisher Scientific, cat. 12634028), 10 mM HEPES (Thermo Fisher Scientific, cat. 15630080), 1X GlutaMAX supplement (Thermo Fisher Scientific, cat. 35050061), 0.1 mg/mL primocin (InvivoGen, cat. ant-pm-2), 10% defined fetal bovine serum, heat inactivated (HyClone Laboratories Inc., cat. SH30070.03HI), 1.25 mM N-Acetyl-L-cysteine (Sigma-Aldrich, cat. A9165), 10 mM nicotinamide (Sigma-Aldrich, cat. N0636), 1X B-27 supplement (Thermo Fisher Scientific, cat. 17504044), 1X N-2 supplement (Thermo Fisher Scientific, cat. 17502048), and 10 microM Y-27632 dihydrochloride (Tocris Bioscience, cat. 1254). The 876862-298-R-J1-PDC was cultured in 6E media, which includes all 6B/Colon 1A media components plus 50% L-WRN conditioned media (ATCC, cat. CRL-3276), 50 ng/mL recombinant human EGF recombinant protein (hEGF; Thermo Fisher Scientific, cat. PHG0311), 10 ng/mL recombinant human fibroblast growth factor 10 (hGFG-10; PeproTech, cat. 100-26), 1 ng/mL recombinant human fibroblast growth factor 2 (hFGF-2; PeproTech, cat. 100-18B), and 1 µM prostaglandin E2 (PGE2; Tocris, cat. 2296). The 227483-062-R1-J1-PDC line was cultured in Panc media, containing all 6E components except hFGF-2, with the addition of 500 nM SB-431542 (Selleckchem, cat. S1067) and 10 nM gastrin (Tocris, cat. 3006). […]

Values joined by “and” are separate entries in the source; they are usually repeats but may differ in a detail not shown here. Equal entries are not always repeated.
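Also: spheroids exposed to the compounds for 7 days.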

Usually viability, T/C stands for the ratio of treated to control. What is called IC50 is the concentration needed to halve the response being measured. Regarding `CCCS(=O)(=O)Nc1ccc(F)c(C(=O)c2c[nH]c3ncc(-c4ccc(Cl)cc4)cc23)c1F`, the viability, T/C was 115% and 95.8% (compound 0.0316 µM); 113% and 129% (compound 0.1 µM); 116% and 105% (compound 0.316 µM); 111% and 136% (compound 1 µM); 120% and 141% (compound 3.16 µM); 85.7% and 73.7% (compound 10 µM). The IC50 (curve of compound) is over 10000 nM.
As for `CCN1CCN(Cc2ccc(Nc3ncc(F)c(-c4cc(F)c5nc(C)n(C(C)C)c5c4)n3)nc2)CC1`, the viability, T/C by setting is: (compound 0.00316 µM) 107% and 111%; (compound 0.01 µM) 83.9% and 104%; (compound 0.0316 µM) 89.7% and 115%; (compound 0.1 µM) 76.6% and 104%; (compound 0.316 µM) 97.1% and 112%; (compound 1 µM) 156% and 101%. The IC50 (curve of compound) is over 1000 nM.
`CCc1c2c(nc3ccc(O)cc13)-c1cc3c(c(=O)n1C2)COC(=O)[C@]3(O)CC`: the viability, T/C reads like this: (compound 0.00316 µM) 37.6% and 46.9%; (compound 0.01 µM) 41% and 49.8%; (compound 0.0316 µM) 32.2% and 42.1%; (compound 0.1 µM) 32.6% and 36%; (compound 0.316 µM) 11.1% and 16.2%; (compound 1 µM) 3.13% and 2.22%. In addition, the IC50 (curve of compound) was under 3.16 nM.
As for `CN1CCN(c2cc(C(=O)Nc3cc4cc(-c5cnn(C)c5)ccc4cn3)ccn2)CC1`, the viability, T/C is 92.8% [middle of 12 runs] (compound 0.0316 µM); 75.6% [middle of 12 runs] (compound 0.1 µM); 19.5% [middle of 12 runs] (compound 0.316 µM); 2.43% [middle of 12 runs] (compound 1 µM); 0.92% [middle of 10 runs] (compound 3.16 µM); 0.22% [middle of 9 runs] (compound 10 µM). Besides, the IC50 (compound alone, run of 09/18/2023) is 168 nM [middle of 10 runs].
As for `COC1C=CCC(C)C(C)S(=O)(=O)NC(=O)c2ccc3c(c2)N(CC2CCC21)CC1(CCCc2cc(Cl)ccc21)CO3` (stereo not drawn), the viability, T/C (compound 0.0316 µM) is 103% and 104%; the viability, T/C (compound 0.1 µM) was 72.9% and 83.5%; the viability, T/C (compound 0.316 µM) is 65.5% and 53.1%; the viability, T/C (compound 1 µM) was 50.5% and 46.5%; the viability, T/C (compound 3.16 µM) was 25.1% and 30.6%; the viability, T/C (compound 10 µM) is 12.7% and 13.8%. The IC50 (curve of compound) is 756 nM and 631 nM.
`COc1c(OCCCN2CCOCC2)ccc2c3n(c(=NC(=O)c4cnc(N)nc4)nc12)CCN3`: the viability, T/C (compound 0.00316 µM) was 67%; the viability, T/C (compound 0.01 µM) was 48.4%; the viability, T/C (compound 0.0316 µM) is 22.6%; the viability, T/C (compound 0.1 µM) is 10.7%; the viability, T/C (compound 0.316 µM) was 5.08%; the viability, T/C (compound 1 µM) is 3.71%. The IC50 (curve of compound) turned out to be 8.88 nM.
On to `Cn1ncnc1[C@H]1c2n[nH]c(=O)c3cc(F)cc(c23)N[C@@H]1c1ccc(F)cc1`, for which the viability, T/C reads like this: (compound 0.000316 µM) 115% and 86.3%; (compound 0.001 µM) 96.7% and 94.6%; (compound 0.00316 µM) 93.1% and 98.7%; (compound 0.01 µM) 92.4% and 87.5%; (compound 0.0316 µM) 73.8% and 87%; (compound 0.1 µM) 69.2% and 77.6%. In addition, the IC50 (curve of compound) was over 100 nM.
As for `NC(=O)C(=Cn1cnc(-c2cc(C(F)(F)F)cc(C(F)(F)F)c2)n1)c1cncnc1`, the viability, T/C was 90.5% and 86% (compound 0.00949 µM); 72.8% and 48.9% (compound 0.03 µM); 43.8% and 30.9% (compound 0.0949 µM); 18.4% and 12% (compound 0.3 µM); 4.77% and 4.05% (compound 0.949 µM); 8.1% and 6.28% (compound 3 µM). Also, the IC50 (curve of compound) is 73 nM and 31.1 nM.
For `Nc1ccccc1NC(=O)c1ccc(CNC(=O)OCc2cccnc2)cc1`, the viability, T/C is 97% and 102% (compound 0.0316 µM); 95.4% and 87.3% (compound 0.1 µM); 90% and 113% (compound 0.316 µM); 110% and 124% (compound 1 µM); 95.8% and 101% (compound 3.16 µM); 36.9% and 26.4% (compound 10 µM). Moreover, the IC50 (curve of compound) is 7730 nM and 6990 nM.
